Measured values reported in PubChem BioAssay (NCI).
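96-well plates; 48 h exposure; 5 concentrations. Endpoints by linear interpolation between flanking doses. Not reached: highest tested concentration assigned. Abbreviation: GI50, concentration required for 50% inhibition of growth. TGI denotes the concentration required for complete inhibition of growth.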

Columns and labels:
Experiment in all cases: NCI anticancer screen, dose series, 48 h
ACHN renal = test system: ACHN renal
EKVX NSCLC = test system: EKVX NSCLC
HOP-62 NSCLC = test system: HOP-62 NSCLC
HS 578T breast = test system: HS 578T breast
HT29 colon = test system: HT29 colon
IGROV1 ovarian = test system: IGROV1 ovarian
MALME-3M melanoma = test system: MALME-3M melanoma
PC-3 prostate = test system: PC-3 prostate
RXF 393 renal = test system: RXF 393 renal
SK-MEL-2 melanoma = test system: SK-MEL-2 melanoma

Compound	TGI (ACHN renal) [µM]	TGI (EKVX NSCLC) [µM]	TGI (HOP-62 NSCLC) [µM]	TGI (HS 578T breast) [µM]	TGI (HT29 colon) [µM]	TGI (IGROV1 ovarian) [µM]	TGI (MALME-3M melanoma) [µM]	TGI (PC-3 prostate) [µM]	TGI (RXF 393 renal) [µM]	TGI (SK-MEL-2 melanoma) [µM]	GI50 (ACHN renal) [µM]	GI50 (EKVX NSCLC) [µM]	GI50 (HOP-62 NSCLC) [µM]	GI50 (HS 578T breast) [µM]	GI50 (IGROV1 ovarian) [µM]	GI50 (MALME-3M melanoma) [µM]	GI50 (PC-3 prostate) [µM]	GI50 (RXF 393 renal) [µM]	GI50 (SK-MEL-2 melanoma) [µM]
O=C([O-])C1([n+]2c(-c3ccccc3)cc(-c3ccccc3)cc2-c2ccccc2)CC1	> 100	> 100	> 100	> 100	> 100	> 100	> 100	> 100	> 100	–	–	–	–	–	–	–	–	–	–
Cc1cc(C)nc(NC(=S)Nc2ccc(Cl)cc2)c1	–	> 100	> 100	> 100	> 100	> 100	> 100	> 100	> 100	> 100	–	–	–	–	–	–	–	–	–
CSC1(Cc2ccccn2)C(=O)Nc2cccc([N+](=O)[O-])c21 (stereo not given)	> 100	> 100	> 100	> 100	> 100	> 100	> 100	> 100	–	> 100	–	–	–	–	–	–	–	–	–
O=c1[nH]nc(Cc2ccccc2)n1C1CC1	> 100	> 100	> 100	> 100	> 100	> 100	> 100	> 100	> 100	–	–	–	–	–	–	–	–	–	–
Nc1ncc(Sc2ccccc2C(=O)O)s1	> 100	> 100	> 100	> 100	> 100	> 100	–	> 100	> 100	> 100	–	–	–	–	–	–	–	–	–
COc1cccc(/C=N/[N-]C(N)=O)c1[O-].[OH3+].[Pd+2]	> 100	> 100	> 100	–	> 100	> 100	> 100	–	> 100	> 100	–	–	–	–	–	–	–	–	–
CCOc1cc(/C=C/C(=O)CC(=O)/C=C/c2ccc(OC(=O)CNCCN(CC)CC)c(OCC)c2)ccc1OC(=O)CNCCN(CC)CC	3.54	3.58	6.06	6.43	–	3.83	4.12	10.7	2.03	3.26	1.92	1.5	2.5	2.19	1.97	1.91	1.62	0.681	1.68
CC(=O)Nc1sccc1S(=O)(=O)c1ccc(Cl)cc1	> 100	> 100	–	> 100	> 100	> 100	> 100	> 100	> 100	> 100	–	–	–	–	–	–	–	–	–
Nc1ncnc2c1N=C(c1ccccc1)CC(c1ccccc1)N2 (stereo not given)	> 100	> 100	> 100	> 100	> 100	–	> 100	> 100	> 100	> 100	–	–	–	–	–	–	–	–	–
COC(=O)[C@]1(C)[C@H]2C[C@H]3O[C@H]4[C@H](O)[C@@H](O)OC(CC(O)C(C5=CC(=O)OC5)C(C5=CC(=O)OC5)C(O)CC56CCCCC7[C@@H](C)[C@H](C[C@H]8[C@](C)(C(=O)OC)[C@H](O)CC[C@]78C)O[C@H]([C@@H](O)[C@H](O)O5)[C@H]6O)(CCCCC([C@@H]3C)[C@]2(C)CC[C@@H]1O)[C@H]4O (stereo not given in full)	–	0.224	0.64	–	0.825	1.2	0.407	0.449	0.264	0.643	–	–	–	–	–	–	–	–	–
O=C1CC(=O)NC(=NN2C(=O)/C(=C/c3ccc(Cl)cc3)N=C2c2ccccc2)N1	52.4	–	30.2	30.6	31.5	27.4	33.4	28.2	30.1	31.1	–	–	–	–	–	–	–	–	–
CC1(CCCCO)C=CC(S(=O)(=O)c2ccccc2)CC1 (stereo not given)	18.1	18	12.1	–	5.91	12.1	12.1	15.1	17	23.1	–	–	–	–	–	–	–	–	–
CC1=CC(=O)c2c(O)c3c(c(O)c2C1=O)C1C(O)C(C3=O)C23C(=O)c4c(O)c(C)cc(O)c4C(O)=C2C(=O)CC(O)C13 (stereo not given)	7.44	8.21	6.21	3.44	7.05	6.58	2.91	10.2	–	3.79	–	–	–	–	–	–	–	–	–
COc1cccc2c1[C@H]1OC(=O)NC1CCCCC2 (stereo not given in full)	> 100	> 100	> 100	–	> 100	> 100	> 100	–	> 100	> 100	–	–	–	–	–	–	–	–	–
CC1=C2CC(C)(C)CC(=O)C2(C)CCC1=O (stereo not given)	> 100	> 100	> 100	> 100	> 100	> 100	> 100	> 100	–	> 100	–	–	–	–	–	–	–	–	–
CCOP(=O)(/C=C\n1ccc(=O)[nH]c1=O)OCC	> 100	> 100	> 100	–	> 100	> 100	–	> 100	> 100	> 100	–	–	–	–	–	–	–	–	–
COCCOCCOCCC(=O)NC1CC2CCC1(C)C2(C)C (stereo not given)	> 100	> 100	> 100	> 100	> 100	> 100	> 100	> 100	> 100	–	–	–	–	–	–	–	–	–	–
CO[C@]12C[C@@H](CNC(=O)c3cc(Br)c[nH]3)O[C@H]1NC(=O)N2	> 100	> 100	> 100	> 100	> 100	> 100	> 100	> 100	–	> 100	–	–	–	–	–	–	–	–	–
C=CCCCCCCCCC(=O)ON(Cc1ccc(O)c(OC)c1)C(=O)C(F)(F)F	> 100	> 100	> 100	> 100	> 100	> 100	> 100	–	> 100	–	–	–	–	–	–	–	–	–	–
CCCCC1Cc2cc(OC)ccc2-c2n1c1cc(OC)ccc1[n+]2C (stereo not given) (tested in a mixture with another compound)	48	20.2	> 61.7	–	> 29.2	6.61	9.71	30.4	45.8	13	–	–	–	–	–	–	–	–	–
O=C1c2ccccc2-n2c1nc1ccc(Cl)cc1c2=O	> 100	> 100	> 100	–	> 100	> 100	–	> 100	44.8	> 100	–	–	–	–	–	–	–	–	–
CCCCOCCOCCOC1=C(Cl)C(=O)c2c(O)ccc(O)c2C1=O	3.11	6.96	2.53	5.86	1.25	2.78	–	3.19	2.05	–	–	–	–	–	–	–	–	–	–
